Source: patent US20130178469A1, “NOVEL ANTIVIRAL AGENTS” (SHANGHAI INSTITUTE OF ORGANIC CHEMISTRY (SIOC), priority 2010, published 2013)
Read-outs that look alike come from different tables or passages of the source.

What was measured:
[1] = Clinical Observation following intravenous and oral administration; type: in vivo, Male Sprague Dawley Rats
Procedure: (§1) Method: For IV infusion over 10 minutes the compound of Example 3.4 was dissolved in 20% DMSO, 30% PEG400 and 50% Water. For oral (PO) dosing AVX62738 was dissolved in 0.5% benzyl alcohol and 0.4% Tween 80 and 99.1% 0.5% hydroxypropylmethylcellulose. Compounds were dosed IV and then after a one week washout, orally in the same rats. (Body weight: Rat 1: 254.7 g; Rat 2: 253.4 g). Ex-vivo plasma samples were assayed for AVX62738 using an LC-ms method of Lower limit of quantitation. (LLOQ)=2.5 ng/mL.

[2] = Bioavailability and pharmacokinetic profile following intravenous and oral administration; type: in vivo, Male Sprague Dawley Rats; settings: for MRT inf: read-out: MRT(0-∞); for Vd: read-out: Vz
Procedure: as §1

HIV-1 = assay: Luciferase Assay with single-round reporter virus (NLXLuc or HIV-Luc); type: cell-based; settings: Human immunodeficiency virus 1
Description: Infectivity assays using reporter viruses derived from lentiviral vectors capable of a single round of infection were used to determine the activity (EC50) of compounds. The DNA used to generate viruses for infection was the full-length HIV-1 genome which had been envelope-deleted. In addition, a reporter gene (the firefly luciferase gene from Photinus pyralis) was cloned into the nefregion of the HIV backbone for ease of assay readout. […]. Culture supernatants containing VSV-G pseudotyped virions were harvested 64 h post transfection, clarified by centrifugation to remove cell debris, and frozen at −70° C. until use.
293FT cells were plated out at 12000 cells per well in CellView 96-well cell culture plates (Invitrogen) 16 h prior to compound addition. Compounds were preincubated with cells for 4 h at 37° C. prior to the addition of virus sufficient to generate approximately 10000 Luciferase light units (as measured by the Victor Wallace luminometer) upon assaying using the Bright-Glo™ reagent (Promega) according to the manufacturer's instructions at 48 h post infection.
In the tables below, this assay is referred to as NLXLuc or HIV-Luc.

[3] = male, Sprague Dawley, rat, plasma, iv, 5 mg/kg, IV 5 mg/kg, Mean
[4] = male, Sprague Dawley, rat, plasma, iv, 5 mg/kg, IV 5 mg/kg, Rat 1
[5] = male, Sprague Dawley, rat, plasma, iv, 5 mg/kg, IV 5 mg/kg, Rat 2
[6] = male, Sprague Dawley, rat, plasma, iv, 5 mg/kg, IV (5 mg/kg), Mean
[7] = male, Sprague Dawley, rat, plasma, iv, 5 mg/kg, IV (5 mg/kg), animal 701
[8] = male, Sprague Dawley, rat, plasma, po, 10 mg/kg, PO 10 mg/kg, Mean
[9] = male, Sprague Dawley, rat, plasma, po, 10 mg/kg, PO 10 mg/kg, Rat 1
[10] = male, Sprague Dawley, rat, plasma, po, 10 mg/kg, PO 10 mg/kg, Rat 2
[11] = male, Sprague Dawley, rat, plasma, po, 10 mg/kg, PO (10 mg/kg), Mean
[12] = male, Sprague Dawley, rat, plasma, po, 10 mg/kg, PO (10 mg/kg), animal 801
[13] = male, Sprague Dawley, rat, plasma, po, 10 mg/kg, PO (10 mg/kg), animal 802
[14] = male, Sprague-Dawley, rat, plasma, iv, 5 mg/kg, IV (5 mg/kg), animal 701
[15] = male, Sprague-Dawley, rat, plasma, iv, 5 mg/kg, IV (5 mg/kg), animal 702

CN1CCN(c2cc(N3CCN(C)S3(=O)=O)c3nc(C(=O)NCc4ccc(F)cc4)c(O)c(=O)n3c2)CC1 [Example 3.4, 3-Hydroxy-9-(5-methyl-1,1-dioxo-1,6-[1,2,5]thiadiazolidin-2-yl)-7-(4-methyl-piperazin-1-yl)-4-oxo-4H-pyrido[1,2-a]pyrimidine-2-carboxylic acid 4-fluoro-benzylamide]
Clinical Observation ([1]; following intravenous administration (5 mg/kg)): Following intravenous administration, no obvious abnormalities were
Clinical Observation ([1]; following oral administration (10 mg/kg)): Following oral administration, no obvious abnormalities were observed.
Plasma Concentration ([2]; IV 5 mg/kg, Rat 1, 24 hr): BLQ (BLQ: Below limit of quantitation)
Plasma Concentration ([2]; IV 5 mg/kg, Rat 1, Pre-dose): BLQ (BLQ: Below limit of quantitation)
Plasma Concentration ([2]; IV 5 mg/kg, Rat 2, 24 hr): BLQ (BLQ: Below limit of quantitation)
Plasma Concentration ([2]; IV 5 mg/kg, Rat 2, Pre-dose): BLQ (BLQ: Below limit of quantitation)
CLz ([2]; IV (5 mg/kg), Mean): 44.8 mL/min/kg
t1/2z ([2]; IV (5 mg/kg), Mean): 80.4 min
CLz ([2]; IV (5 mg/kg), animal 701): 44.8 mL/min/kg
t1/2z ([2]; IV (5 mg/kg), animal 701): 83.4 min
CLz ([2]; IV (5 mg/kg), animal 702): 44.8 mL/min/kg
t1/2z ([2]; IV (5 mg/kg), animal 702): 77.4 min
Plasma Concentration ([2]; PO 10 mg/kg, Rat 1, Pre-dose): BLQ (BLQ: Below limit of quantitation)
Plasma Concentration ([2]; PO 10 mg/kg, Rat 2, 6 hr): BLQ (BLQ: Below limit of quantitation)
Plasma Concentration ([2]; PO 10 mg/kg, Rat 2, 8 hr): BLQ (BLQ: Below limit of quantitation)
Plasma Concentration ([2]; PO 10 mg/kg, Rat 2, 24 hr): BLQ (BLQ: Below limit of quantitation)
Plasma Concentration ([2]; PO 10 mg/kg, Rat 2, Pre-dose): BLQ (BLQ: Below limit of quantitation)
F ([2]; PO (10 mg/kg), Mean): 2.95%
t1/2z ([2]; PO (10 mg/kg), Mean): 74.4 min
F ([2]; PO (10 mg/kg), animal 801): 2.39%
t1/2z ([2]; PO (10 mg/kg), animal 801): 99 min
F ([2]; PO (10 mg/kg), animal 802): 3.50%
t1/2z ([2]; PO (10 mg/kg), animal 802): 49.8 min
concentration at 0.083 hr [2, 3]: 3030 ng/mL
concentration at 0.25 hr [2, 3]: 2060 ng/mL
concentration at 0.5 hr [2, 3]: 1140 ng/mL
concentration at 1 hr [2, 3]: 527 ng/mL
concentration at 2 hr [2, 3]: 113 ng/mL
concentration at 4 hr [2, 3]: 19 ng/mL
concentration at 6 hr ([2]; male, Sprague Dawley, rat, plasma, iv, 5 mg/kg, IV 5 mg/kg, Mean, 6 hr): 6.21 ng/mL
concentration at 8 h ([2]; male, Sprague Dawley, rat, plasma, iv, 5 mg/kg, IV 5 mg/kg, Mean, 8 hr): 2.41 ng/mL
concentration at 0.083 hr [2, 4]: 2710 ng/mL
concentration at 0.25 hr [2, 4]: 1990 ng/mL
concentration at 0.5 hr [2, 4]: 1210 ng/mL
concentration at 1 hr [2, 4]: 548 ng/mL
concentration at 2 hr [2, 4]: 123 ng/mL
concentration at 4 hr [2, 4]: 19.3 ng/mL
concentration at 6 hr ([2]; male, Sprague Dawley, rat, plasma, iv, 5 mg/kg, IV 5 mg/kg, Rat 1, 6 hr): 5.44 ng/mL
concentration at 8 h ([2]; male, Sprague Dawley, rat, plasma, iv, 5 mg/kg, IV 5 mg/kg, Rat 1, 8 hr): 2.64 ng/mL
concentration at 0.083 hr [2, 5]: 3350 ng/mL
concentration at 0.25 hr [2, 5]: 2130 ng/mL
concentration at 0.5 hr [2, 5]: 1060 ng/mL
concentration at 1 hr [2, 5]: 506 ng/mL
concentration at 2 hr [2, 5]: 104 ng/mL
concentration at 4 hr [2, 5]: 18.7 ng/mL
concentration at 6 hr ([2]; male, Sprague Dawley, rat, plasma, iv, 5 mg/kg, IV 5 mg/kg, Rat 2, 6 hr): 6.97 ng/mL
concentration at 8 h ([2]; male, Sprague Dawley, rat, plasma, iv, 5 mg/kg, IV 5 mg/kg, Rat 2, 8 hr): 2.19 ng/mL
AUC(0-inf) [2, 6]: 1860 ng·h/mL
AUC(0-t) [2, 6]: 1850 ng·h/mL
Cmax [2, 6]: 3030 ng/mL
Tmax [2, 6]: 4.8 min
MRT inf [2, 6]: 39.6 min
Vd [2, 6]: 5.21 L/kg
AUC(0-inf) [2, 7]: 1860 ng·h/mL
AUC(0-t) [2, 7]: 1860 ng·h/mL
Tmax [2, 7]: 4.8 min
MRT inf [2, 7]: 40.8 min
concentration at 0.083 hr [2, 8]: 35.2 ng/mL
concentration at 0.25 hr [2, 8]: 72.2 ng/mL
concentration at 0.5 hr [2, 8]: 63.6 ng/mL
concentration at 1 hr [2, 8]: 39.5 ng/mL
concentration at 2 hr [2, 8]: 14.1 ng/mL
concentration at 4 hr [2, 8]: 5.29 ng/mL
concentration at 6 h ([2]; male, Sprague Dawley, rat, plasma, po, 10 mg/kg, PO 10 mg/kg, Mean, 6 hr): 1.31 ng/mL
concentration at 0.083 hr [2, 9]: 42.4 ng/mL
concentration at 0.25 hr [2, 9]: 66.2 ng/mL
concentration at 0.5 hr [2, 9]: 35.7 ng/mL
concentration at 1 hr [2, 9]: 20.9 ng/mL
concentration at 2 hr [2, 9]: 13.8 ng/mL
concentration at 4 hr [2, 9]: 5.62 ng/mL
concentration at 6 hr ([2]; male, Sprague Dawley, rat, plasma, po, 10 mg/kg, PO 10 mg/kg, Rat 1, 6 hr): 2.62 ng/mL
concentration at 8 h ([2]; male, Sprague Dawley, rat, plasma, po, 10 mg/kg, PO 10 mg/kg, Rat 1, 8 hr, not kept for calculation): 148 ng/mL
concentration at 24 h ([2]; male, Sprague Dawley, rat, plasma, po, 10 mg/kg, PO 10 mg/kg, Rat 1, 24 hr, not kept for calculation): 4.66 ng/mL
concentration at 0.083 hr [2, 10]: 28.1 ng/mL
concentration at 0.25 hr [2, 10]: 78.1 ng/mL
concentration at 0.5 hr [2, 10]: 91.6 ng/mL
concentration at 1 hr [2, 10]: 58.1 ng/mL
concentration at 2 hr [2, 10]: 14.3 ng/mL
concentration at 4 hr [2, 10]: 4.96 ng/mL
AUC(0-inf) [2, 11]: 110 ng·h/mL
AUC(0-t) [2, 11]: 103 ng·h/mL
Cmax [2, 11]: 78.9 ng/mL
Tmax [2, 11]: 22.8 min
MRT inf [2, 11]: 97.8 min
AUC(0-inf) [2, 12]: 89 ng·h/mL
AUC(0-t) [2, 12]: 82.8 ng·h/mL
Cmax [2, 12]: 66.2 ng/mL
Tmax [2, 12]: 15 min
MRT inf [2, 12]: 122 min
AUC(0-inf) [2, 13]: 130 ng·h/mL
AUC(0-t) [2, 13]: 124 ng·h/mL
Cmax [2, 13]: 91.6 ng/mL
Tmax [2, 13]: 30 min
MRT inf [2, 13]: 73.2 min
Cmax [2, 14]: 2710 ng/mL
Vd [2, 14]: 5.39 L/kg
AUC(0-inf) [2, 15]: 1860 ng·h/mL
AUC(0-t) [2, 15]: 1850 ng·h/mL
Cmax [2, 15]: 3350 ng/mL
Tmax [2, 15]: 4.8 min
MRT inf [2, 15]: 37.8 min
Vd [2, 15]: 5.02 L/kg
EC50 (HIV-1): 1 to 10 nM
